# Measured values published in ChEMBL document CHEMBL4387763, “Discovery of novel biaryl sulfonamide based Mcl-1 inhibitors” (Bioorg Med Chem Lett, 2019).
# Target: T1, Induced myeloid leukemia cell differentiation protein Mcl-1 (Homo sapiens, UniProt Q07820)
# Test: Binding affinity to biotin-labelled TEV-fused GST-tagged MCl-1 (unknown origin) by surface plasmon resonance analysis
# Conditions: not given
# T1 sequence (Q07820 whole entry, the tested form may be a part): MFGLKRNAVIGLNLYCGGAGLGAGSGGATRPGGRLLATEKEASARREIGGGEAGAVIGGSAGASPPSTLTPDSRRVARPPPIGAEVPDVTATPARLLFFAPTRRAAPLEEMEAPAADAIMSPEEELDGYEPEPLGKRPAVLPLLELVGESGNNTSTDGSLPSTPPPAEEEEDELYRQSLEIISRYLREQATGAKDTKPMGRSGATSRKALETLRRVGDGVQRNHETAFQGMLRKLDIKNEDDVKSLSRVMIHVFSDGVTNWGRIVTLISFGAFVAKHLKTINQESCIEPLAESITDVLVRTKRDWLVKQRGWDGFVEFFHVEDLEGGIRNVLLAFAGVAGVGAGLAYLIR
row,Kd [nM],Structure (SMILES)
1,165,Cc1cc(C(=O)NC[C@@H](O)c2ccccc2)sc1S(=O)(=O)Nc1cc(C(F)(F)F)ccc1Cl

# System: not listed separately
# Test: Stability in mouse liver microsomes assessed as parent compound remaining after 30 mins
# Type: ADME, Microsome
# Conditions: read-out: Stability
row,remaining at 0.5 h [%],Structure (SMILES)
1,95,Cc1cc(C(=O)N[C@H](Cc2ccccc2)C(=O)O)sc1S(=O)(=O)Nc1cc(C(F)(F)F)ccc1Cl
2,91,Cc1cc(C(=O)N[C@H](Cc2ccccc2)C(=O)NS(C)(=O)=O)sc1S(=O)(=O)Nc1cc(C(F)(F)F)ccc1Cl
3,81,Cc1cc(C(=O)N[C@H](Cc2ccccc2)C(=O)NS(=O)(=O)c2ccccc2)sc1S(=O)(=O)Nc1cc(C(F)(F)F)ccc1Cl
4,94,Cc1cc(C(=O)N[C@H](Cc2c[nH]c3ccccc23)C(=O)O)sc1S(=O)(=O)Nc1cc(C(F)(F)F)ccc1Cl

# System: not listed separately
# Test: Solubility of the compound
# Type: physicochemical
# Conditions: not given
row,solubility [µM],Structure (SMILES)
1,100,Cc1cc(C(=O)N[C@H](Cc2ccccc2)C(=O)O)sc1S(=O)(=O)Nc1cc(C(F)(F)F)ccc1Cl
2,100,Cc1cc(C(=O)N[C@H](Cc2c[nH]c3ccccc23)C(=O)O)sc1S(=O)(=O)Nc1cc(C(F)(F)F)ccc1Cl

# System: not listed separately
# Test: Stability in human liver microsomes assessed as parent compound remaining after 30 mins
# Type: ADME, Microsome
# Conditions: read-out: Stability
row,remaining at 0.5 h [%],Structure (SMILES)
1,66,Cc1cc(C(=O)N[C@H](Cc2ccccc2)C(=O)O)sc1S(=O)(=O)Nc1cc(C(F)(F)F)ccc1Cl
2,99,Cc1cc(C(=O)N[C@H](Cc2ccccc2)C(=O)NS(C)(=O)=O)sc1S(=O)(=O)Nc1cc(C(F)(F)F)ccc1Cl
3,74,Cc1cc(C(=O)N[C@H](Cc2ccccc2)C(=O)NS(=O)(=O)c2ccccc2)sc1S(=O)(=O)Nc1cc(C(F)(F)F)ccc1Cl
4,98,Cc1cc(C(=O)N[C@H](Cc2c[nH]c3ccccc23)C(=O)O)sc1S(=O)(=O)Nc1cc(C(F)(F)F)ccc1Cl

# Target: T1, Induced myeloid leukemia cell differentiation protein Mcl-1
# Test: Inhibition of […]-labelled BID binding to human MCl-1 (171 to 327 residues) expressed in Escherichia coli BL21 (DE3) by fluorescence polarization assay
# Conditions: not given
row,Structure (SMILES),IC50 [nM]
1,Cc1ccccc1S(=O)(=O)Nc1cc(C(F)(F)F)ccc1Cl,11000
2,Cc1cc2c(cc1S(=O)(=O)Nc1cc(C(F)(F)F)ccc1Cl)OCC(=O)N2,1800
3,O=S(=O)(Nc1cc(C(F)(F)F)ccc1Cl)c1cc(Cl)ccc1Cl,149 to 3100
4,Cc1cc(C(=O)N[C@H](Cc2ccc(-c3ccccc3)cc2)C(=O)O)sc1S(=O)(=O)Nc1cc(C(F)(F)F)ccc1Cl,2800
5,O=S(=O)(Nc1ccc(Cl)cc1Cl)c1cc(Cl)ccc1Cl,21000
6,Cc1ccc(S(=O)(=O)Nc2cc(C(F)(F)F)ccc2Cl)c(C)c1,12000
7,Cc1cc(C(=O)NCCc2ccc(Oc3ccccc3)cc2)sc1S(=O)(=O)Nc1cc(C(F)(F)F)ccc1Cl,7000
8,O=S(=O)(Nc1ccc2ccccc2c1)c1cc(Cl)ccc1Cl,> 25000
9,O=S(=O)(Nc1cc(C(F)(F)F)ccc1Cl)c1sc(Cl)cc1Cl,8600
10,O=S(=O)(Nc1cc(C(F)(F)F)ccc1Cl)c1c(Cl)cccc1Cl,7300
11,O=C(Nn1cnnc1)c1cccc(S(=O)(=O)Nc2cc(C(F)(F)F)ccc2Cl)c1,19000
12,Cc1cc(C(=O)NCCC(=O)O)sc1S(=O)(=O)Nc1cc(C(F)(F)F)ccc1Cl,3500
13,Cc1ccc([N+](=O)[O-])cc1NS(=O)(=O)c1cc(Cl)ccc1Cl,20000
14,Cc1cc(C(=O)NC(Cc2ccccc2)c2ccccc2)sc1S(=O)(=O)Nc1cc(C(F)(F)F)ccc1Cl (stereo unspecified),7100
15,CN(C)c1ccc(S(=O)(=O)N(C)C)cc1NS(=O)(=O)c1cc(Cl)ccc1Cl,18000
16,O=S(=O)(Nc1cc(Cl)ccc1Cl)c1cc(Cl)ccc1Cl,11000
17,O=S(=O)(Nc1cc(Cl)c(Cl)cc1Cl)c1cc(Cl)ccc1Cl,9000
18,Cc1cc(C(=O)NC(Cc2ccccc2)Cc2ccccc2)sc1S(=O)(=O)Nc1cc(C(F)(F)F)ccc1Cl,7100
19,COC(=O)c1cc(C)c(S(=O)(=O)Nc2cc(C(F)(F)F)ccc2Cl)s1,1900
20,O=S(=O)(Nc1ccn[nH]1)c1cc(Cl)ccc1Cl,> 25000
21,Cc1cc(C(=O)NC2CCc3ccccc3C2)sc1S(=O)(=O)Nc1cc(C(F)(F)F)ccc1Cl (stereo unspecified),4200
22,Cc1cc(F)ccc1S(=O)(=O)Nc1cc(C(F)(F)F)ccc1Cl,10000
23,O=S(=O)(Nc1cc(C(F)(F)F)ccc1Cl)c1ccccc1Cl,13000
24,Cc1ccc(F)cc1S(=O)(=O)Nc1cc(C(F)(F)F)ccc1Cl,5500
25,O=S(=O)(Nc1cccc(C(F)(F)F)c1)c1cc(Cl)ccc1Cl,> 25000
26,O=S(=O)(Nc1ccccc1Cl)c1cc(Cl)ccc1Cl,> 25000
27,Cc1nn(C)c(Cl)c1S(=O)(=O)Nc1cc(C(F)(F)F)ccc1Cl,23000
28,Cn1ccnc1S(=O)(=O)Nc1cc(C(F)(F)F)ccc1Cl,17000
29,CC(C)c1cccc(NS(=O)(=O)c2cc(Cl)ccc2Cl)c1,> 25000

# Further compounds by falling IC50, results first:
row,IC50 [nM],Structure (SMILES)
1,1500,Cc1cc(C(=O)NC2(C(=O)O)CC2)sc1S(=O)(=O)Nc1cc(C(F)(F)F)ccc1Cl
2,1500,Cc1cc(C(=O)N[C@H](C)C(=O)O)sc1S(=O)(=O)Nc1cc(C(F)(F)F)ccc1Cl
3,1070,Cc1cc(C(=O)NS(C)(=O)=O)sc1S(=O)(=O)Nc1cc(C(F)(F)F)ccc1Cl
4,1000,Cc1cc(C(=O)N2CCCC[C@H]2C(=O)O)sc1S(=O)(=O)Nc1cc(C(F)(F)F)ccc1Cl
5,920,Cc1cc(C(=O)N[C@H](Cc2c[nH]cn2)C(=O)O)sc1S(=O)(=O)Nc1cc(C(F)(F)F)ccc1Cl
6,820,Cc1cc(C(=O)N[C@H](CCc2ccccc2)C(=O)O)sc1S(=O)(=O)Nc1cc(C(F)(F)F)ccc1Cl
7,810,Cc1cc(C(=O)NCCc2ccccc2)sc1S(=O)(=O)Nc1cc(C(F)(F)F)ccc1Cl
8,750,Cc1cc(C(=O)N[C@@H](Cc2ccccc2)C(=O)O)sc1S(=O)(=O)Nc1cc(C(F)(F)F)ccc1Cl
9,690,Cc1cc(C(=O)N(CCc2ccccc2)CC(=O)O)sc1S(=O)(=O)Nc1cc(C(F)(F)F)ccc1Cl
10,660,Cc1cc(C(=O)N[C@@H](C(=O)O)C(C)C)sc1S(=O)(=O)Nc1cc(C(F)(F)F)ccc1Cl
11,630,Cc1cc(C(=O)N2CCN(C(=O)OC(C)(C)C)C[C@H]2C(=O)O)sc1S(=O)(=O)Nc1cc(C(F)(F)F)ccc1Cl
12,470,Cc1cc(C(=O)NCC(=O)O)sc1S(=O)(=O)Nc1cc(C(F)(F)F)ccc1Cl
13,470,Cc1cc(C(=O)NC[C@H](O)c2ccccc2)sc1S(=O)(=O)Nc1cc(C(F)(F)F)ccc1Cl
14,420,Cc1cc(C(=O)NCc2nnn[nH]2)sc1S(=O)(=O)Nc1cc(C(F)(F)F)ccc1Cl
15,380,Cc1cc(C(=O)N[C@H](Cc2cccnc2)C(=O)O)sc1S(=O)(=O)Nc1cc(C(F)(F)F)ccc1Cl
16,310,Cc1cc(C(=O)N[C@H](COCc2ccccc2)C(=O)O)sc1S(=O)(=O)Nc1cc(C(F)(F)F)ccc1Cl
17,300,Cc1cc(C(=O)NC(Cc2ccccc2)C(=O)O)sc1S(=O)(=O)Nc1cc(C(F)(F)F)ccc1Cl (stereo unspecified)
18,210,Cc1cc(C(=O)N[C@H](Cc2c[nH]c3ccccc23)C(=O)O)sc1S(=O)(=O)Nc1cc(C(F)(F)F)ccc1Cl
19,181,Cc1cc(C(=O)N[C@H](Cc2ccccc2)C(=O)O)sc1S(=O)(=O)Nc1cc(C(F)(F)F)ccc1Cl
20,153,Cc1cc(C(=O)N[C@H](Cc2ccccc2)c2nnn[nH]2)sc1S(=O)(=O)Nc1cc(C(F)(F)F)ccc1Cl
21,153,Cc1cc(C(=O)N[C@H](Cc2ccccc2)C(N)=O)sc1S(=O)(=O)Nc1cc(C(F)(F)F)ccc1Cl
22,149,Cc1cc(C(=O)NC[C@@H](O)c2ccccc2)sc1S(=O)(=O)Nc1cc(C(F)(F)F)ccc1Cl
23,145,COC(=O)[C@@H](Cc1ccccc1)NC(=O)c1cc(C)c(S(=O)(=O)Nc2cc(C(F)(F)F)ccc2Cl)s1
24,112,Cc1cc(C(=O)N[C@H](Cc2ccccc2)C(=O)NCCO)sc1S(=O)(=O)Nc1cc(C(F)(F)F)ccc1Cl
25,73,Cc1cc(C(=O)N[C@H](Cc2ccccc2)C(=O)NS(C)(=O)=O)sc1S(=O)(=O)Nc1cc(C(F)(F)F)ccc1Cl
26,53,Cc1cc(C(=O)N[C@H](Cc2ccccc2)C(=O)NS(=O)(=O)c2ccccc2)sc1S(=O)(=O)Nc1cc(C(F)(F)F)ccc1Cl
